# Results: patent US20070128217A1 (priority 2003, published 2007)
# Assays:
# [1] = tested on: antibodies in sera from SARS patients (sera 1a, 1b, 2, 6, 37, 62, London, SARS-yellow, SARS-green); type: binding, human; set-up: Binding of serum 6 to linear peptides of protein X1 of SARS-CoV Urbani / Binding of serum 37 to linear peptides of protein X1 of SARS-CoV Urbani / Binding of serum 6 to looped/cyclic peptide (PEPSCAN-ELISA) / Binding of serum 37 to looped/cyclic peptide (PEPSCAN-ELISA) / Binding of serum 37 to looped/cyclic peptides of protein X1 of SARS-CoV Urbani / Binding of serum 6 to linear peptides of protein X2 / Binding of serum 37 to linear peptides of protein X2 / Binding of serum 37 to looped/cyclic peptides of protein X2 of SARS-CoV Urbani / Binding of serum 6 to linear peptides of protein M of SARS-CoV Urbani / Binding of serum 37 to linear peptides of protein M of SARS-CoV Urbani / Binding of serum 6 to looped/cyclic peptides of protein M of SARS-CoV Urbani / Binding of serum 37 to looped/cyclic peptides of protein M of SARS-CoV Urbani / Binding of serum 6 to linear peptides of protein X3 of SARS-CoV Urbani / Binding of serum 37 to linear peptides of protein X3 of SARS-CoV Urbani / Binding of serum 37 to looped/cyclic peptides of protein X3 of SARS-CoV Urbani / Binding of serum 6 to linear peptides of protein X4 of SARS-CoV Urbani / Binding of serum 37 to linear peptides of protein X4 of SARS-CoV Urbani / Binding of serum 37 to looped/cyclic peptides of protein X4 of SARS-CoV Urbani / Binding of serum 6 to linear peptides of protein X5 of SARS-CoV Urbani / Binding of serum 37 to linear peptides of protein X5 of SARS-CoV Urbani / Binding of serum 37 to looped/cyclic peptides of protein X5 of SARS-CoV Urbani / Binding of serum 6 to linear peptides of protein N of SARS-CoV Urbani / Binding of serum 37 to linear peptides of protein N of SARS-CoV Urbani / Binding of serum 6 to linear peptide (PEPSCAN-ELISA) / Binding of serum 1a to looped/cyclic peptides of protein N of SARS-CoV Urbani / Binding of serum 1b to looped/cyclic peptides of protein N of SARS-CoV Urbani / Binding of serum 2 to looped/cyclic peptides of protein N of SARS-CoV Urbani / Binding of serum 6 to looped/cyclic peptides of protein N of SARS-CoV Urbani / Binding of serum 37 to looped/cyclic peptides of protein N of SARS-CoV Urbani / Binding of serum 62 to looped/cyclic peptides of protein N of SARS-CoV Urbani / Binding of serum London to looped/cyclic peptides of protein N of SARS-CoV Urbani / Binding of serum SARS-green to looped/cyclic peptides of protein N of SARS-CoV Urbani: unit not given here
# [2] = tested on: control sera (pooled serum of ten healthy LUMC hospital workers; commercial negative donor pooled serum from the Dutch bloodbank); type: binding, human; set-up: Binding of Control serum LUMC to linear peptides / Binding of Control serum Blood-bank to linear peptides / Binding of Control serum LUMC to looped peptides / Binding of Control Serum Blood-Bank to Looped peptides / Binding of Control serum LUMC to linear peptides of the protein M of SARS-CoV Urbani / Binding of Control serum Blood-bank to linear peptides of the protein M of SARS-CoV Urbani / Binding of Control serum LUMC to looped peptides of the protein M of SARS-CoV Urbani / Binding of Control Serum Blood-Bank to Looped peptides of the protein M of SARS-CoV Urbani: unit not given here
# [3] = tested on: rabbit serum obtained by immunizing a rabbit with the SARS-CoV strain Frankfurt 1; type: binding; set-up: Binding of a rabbit serum to linear peptides / Binding of a rabbit serum to looped peptides / Rabbit serum linear peptides / Rabbit serum looped peptides / Binding of a rabbit serum to linear peptides of protein N of SARS-CoV Urbani (Rabbit serum linear peptides) / Binding of a rabbit serum to looped/cyclic peptides of protein N of SARS-CoV Urbani (Rabbit serum looped peptides): unit not given here
sequence,measurement,setting,value
ATIPLQASLPFGWLV,Binding of serum 1a to linear peptides of protein X1 of SARS-CoV Urbani,[1],0.7
same,Binding of serum 1a to looped/cyclic peptide (PEPSCAN-ELISA),[1],0.6
same,Binding of serum 1b to linear peptides of protein X1 of SARS-CoV Urbani,[1],0.5
same,Binding of serum 1b to looped/cyclic peptide (PEPSCAN-ELISA),[1],0.5
same,Binding of serum 2 to linear peptides of protein X1 of SARS-CoV Urbani,[1],0.6
same,Binding of serum 2 to looped/cyclic peptide (PEPSCAN-ELISA),[1],0.6
same,Binding of serum 6 to linear peptides of protein X1 of SARS-CoV Urbani,[1],0.6
same,Binding of serum 6 to looped/cyclic peptide (PEPSCAN-ELISA),[1],0.4
same,Binding of serum 37 to linear peptides of protein X1 of SARS-CoV Urbani,[1],0.7
same,Binding of serum 37 to looped/cyclic peptide (PEPSCAN-ELISA),[1],0.7
same,Binding of serum 62 to linear peptides of protein X1 of SARS-CoV Urbani,[1],0.7
same,Binding of serum 62 to looped/cyclic peptide (PEPSCAN-ELISA),[1],0.7
same,Binding of serum London to linear peptides of protein X1 of SARS-CoV Urbani,[1],0.3
same,Binding of serum London to looped/cyclic peptide (PEPSCAN-ELISA),[1],0.3
same,Binding of serum SARS-green to linear peptides of protein X1 of SARS-CoV Urbani,[1],0.2
same,Binding of serum SARS-green to looped/cyclic peptide (PEPSCAN-ELISA),[1],0.4
same,Binding of serum SARS-yellow to linear peptides of protein X1 of SARS-CoV Urbani,[1],0.3
same,Binding of serum SARS-yellow to looped/cyclic peptide (PEPSCAN-ELISA),[1],0.3
same,Binding of Control Serum Blood-Bank to Looped peptides,[2],0.7
same,Binding of Control serum Blood-bank to linear peptides,[2],0.8
same,Binding of Control serum LUMC to linear peptides,[2],0.5
same,Binding of Control serum LUMC to looped peptides,[2],0.7
same,Binding of a rabbit serum to linear peptides,[3],0.1
same,Binding of a rabbit serum to looped peptides,[3],0.5
FLWLLWPVTLACFVL,Binding of serum 1a to linear peptides of protein M of SARS-CoV Urbani,[1],0.6
same,Binding of serum 1a to looped/cyclic peptides of protein M of SARS-CoV Urbani,[1],0.6
same,Binding of serum 1b to linear peptides of protein M of SARS-CoV Urbani,[1],0.4
same,Binding of serum 1b to looped/cyclic peptides of protein M of SARS-CoV Urbani,[1],0.5
same,Binding of serum 2 to linear peptides of protein M of SARS-CoV Urbani,[1],0.5
same,Binding of serum 2 to looped/cyclic peptides of protein M of SARS-CoV Urbani,[1],0.6
same,Binding of serum 6 to linear peptides of protein M of SARS-CoV Urbani,[1],0.3
same,Binding of serum 6 to looped/cyclic peptides of protein M of SARS-CoV Urbani,[1],0.4
same,Binding of serum 37 to linear peptides of protein M of SARS-CoV Urbani,[1],0.6
same,Binding of serum 37 to looped/cyclic peptides of protein M of SARS-CoV Urbani,[1],0.6
same,Binding of serum 62 to linear peptides of protein M of SARS-CoV Urbani,[1],0.7
same,Binding of serum 62 to looped/cyclic peptides of protein M of SARS-CoV Urbani,[1],0.6
same,Binding of serum London to linear peptides of protein M of SARS-CoV Urbani,[1],0.4
same,Binding of serum London to looped/cyclic peptides of protein M of SARS-CoV Urbani,[1],0.2
same,Binding of serum SARS-green to linear peptides of protein M of SARS-CoV Urbani,[1],0.2
same,Binding of serum SARS-green to looped/cyclic peptides of protein M of SARS-CoV Urbani,[1],0.2
same,Binding of serum SARS-yellow to linear peptides of protein M of SARS-CoV Urbani,[1],0.1
same,Binding of serum SARS-yellow to looped/cyclic peptides of protein M of SARS-CoV Urbani,[1],0.7
same,Binding of Control Serum Blood-Bank to Looped peptides of the protein M of SARS-CoV Urbani,[2],0.5
same,Binding of Control serum Blood-bank to linear peptides of the protein M of SARS-CoV Urbani,[2],0.4
same,Binding of Control serum LUMC to linear peptides of the protein M of SARS-CoV Urbani,[2],0.2
same,Binding of Control serum LUMC to looped peptides of the protein M of SARS-CoV Urbani,[2],0.7
same,Rabbit serum linear peptides,[3],0.3
same,Rabbit serum looped peptides,[3],0.4
SSLTSLLKTHRMCKY,Binding of serum 1a to linear peptides of protein X2,[1],0.6
same,Binding of serum 1a to looped/cyclic peptides of protein X2 of SARS-CoV Urbani,[1],0.5
same,Binding of serum 1b to linear peptides of protein X2,[1],0.5
same,Binding of serum 1b to looped/cyclic peptides of protein X2 of SARS-CoV Urbani,[1],0.5
same,Binding of serum 2 to linear peptides of protein X2,[1],0.4
same,Binding of serum 2 to looped/cyclic peptides of protein X2 of SARS-CoV Urbani,[1],0.4
same,Binding of serum 6 to linear peptides of protein X2,[1],0.5
same,Binding of serum 6 to looped/cyclic peptides of protein X2 of SARS-CoV Urbani,[1],0.3
same,Binding of serum 37 to linear peptides of protein X2,[1],0.5
same,Binding of serum 37 to looped/cyclic peptides of protein X2 of SARS-CoV Urbani,[1],0.3
same,Binding of serum 62 to linear peptides of protein X2,[1],0.6
same,Binding of serum 62 to looped/cyclic peptides of protein X2 of SARS-CoV Urbani,[1],0.6
same,Binding of serum London to linear peptides of protein X2,[1],0.4
same,Binding of serum London to looped/cyclic peptides of protein X2 of SARS-CoV Urbani,[1],0.2
same,Binding of serum SARS-green to linear peptides of protein X2,[1],0.5
same,Binding of serum SARS-green to looped/cyclic peptides of protein X2 of SARS-CoV Urbani,[1],0.2
same,Binding of serum SARS-yellow to linear peptides of protein X2,[1],0.3
same,Binding of serum SARS-yellow to looped/cyclic peptides of protein X2 of SARS-CoV Urbani,[1],0.6
same,Binding of Control Serum Blood-Bank to Looped peptides,[2],0.7
same,Binding of Control serum Blood-bank to linear peptides,[2],0.8
same,Binding of Control serum LUMC to linear peptides,[2],0.4
same,Binding of Control serum LUMC to looped peptides,[2],0.6
same,Binding of a rabbit serum to linear peptides,[3],0.3
same,Binding of a rabbit serum to looped peptides,[3],0.5
